# From the supplement of paper PMC11061612
# How the values were obtained:
# [1] = test system: DU-4475 (Breast Carcinoma); experiment: Bliss excess, mean over the matrix (fraction); higher = more synergy
# Summary of the method: (§1)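 Cell lines in DMEM/F12 or RPMI with 10% FBS were plated in 1536-well plates, held 24 hours at 37°C, 5% CO2, then given two-drug dose matrices for 72 hours (DMSO typically 0.2%). Viability was read by CellTiter-Glo 2.0 luminescence and scaled as inhibition from 0 (vehicle wells) to 1 (blank wells). Combination Emax is the second-highest inhibition in the matrix; Bliss excess is observed combination effect minus expected EA + EB − EA·EB, EA and EB being single-agent effects.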
# [2] = test system: CA46 (Burkitt's Lymphoma); experiment: as above
# Summary of the method: as §1
# [3] = test system: HCC1395 (Breast Carcinoma); experiment: as above
# Summary of the method: as §1
# [4] = test system: NCI-H841 (Small Cell Lung Carcinoma); experiment: as above
# Summary of the method: as §1
# [5] = test system: KYSE-220 (Esophageal Squamous Cell Carcinoma); experiment: as above
# Summary of the method: as §1
# EB2 (Burkitt's Lymphoma) = experiment: as above
# Summary of the method: as §1
# [6] = test system: HCC1428 (Breast Carcinoma); experiment: as above
# Summary of the method: as §1
# MKN1 (Gastric Carcinoma) [7] = experiment: as above
# Summary of the method: as §1
# [8] = test system: CAL-27 (Oral Cavity Carcinoma); experiment: as above
# Summary of the method: as §1
# [9] = test system: MHH-ES-1 (Ewing's Sarcoma); experiment: as above
# Summary of the method: as §1
# [10] = test system: G-402 (Other Solid Carcinomas); experiment: as above
# Summary of the method: as §1
# WM1552C (Melanoma) = experiment: as above
# Summary of the method: as §1
# [11] = test system: NCI-H841 (Small Cell Lung Carcinoma); experiment: combination Emax (second highest fraction inhibited in the dose matrix, 72 h); higher = more inhibition; extreme values may be limits of the assay
# Summary of the method: as §1
# MKN1 (Gastric Carcinoma) [12] = experiment: as above
# Summary of the method: as §1
# [13] = test system: TE-10 (Esophageal Squamous Cell Carcinoma); experiment: Bliss excess, mean over the matrix (fraction); higher = more synergy
# Summary of the method: as §1
# [14] = test system: TE-10 (Esophageal Squamous Cell Carcinoma); experiment: combination Emax (second highest fraction inhibited in the dose matrix, 72 h); higher = more inhibition; extreme values may be limits of the assay
# Summary of the method: as §1
# 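Throughout, for Bliss excess, mean over the matrix: after 72 h of two-drug dosing.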
Compound,Bliss excess [1],Bliss excess [2],Bliss excess [3],Bliss excess [4],Bliss excess [5],Bliss excess (EB2 (Burkitt's Lymphoma)),Bliss excess [6],Bliss excess (MKN1 (Gastric Carcinoma) [7]),Bliss excess [8],Bliss excess [9],Bliss excess [10],Bliss excess (WM1552C (Melanoma)),combination Emax [11],combination Emax (MKN1 (Gastric Carcinoma) [12]),Bliss excess [13],combination Emax [14]
"Cn1cnc2c(F)c(Nc3ccc(Br)cc3Cl)c(C(=O)NOCCO)cc21 [Selumetinib] + CCN(CCO)CCCOc1ccc2c(Nc3cc(CC(=O)Nc4cccc(F)c4)[nH]n3)ncnc2c1 [AZD2811] (first compound max 10 µM, 7x7, partner max 1 µM)",0.0351,-0.0093,-0.008,-0.0341,0.036,-0.0564,0.0269,0.002,-0.0921,-0.0268,-0.0137,-0.0694,0.332,0.538,–,–
"COc1nnc2ccc(N3CCC(c4ccc(OCCN5CCN(C)C(=O)[C@H]5C)cc4)CC3)nn12 [AZD5153] + Cc1c2c(nn1C)CSCc1cc(n(C)n1)CSc1cc(c3ccccc3c1)OCCCc1c(C(=O)O)n(C)c3c-2c(Cl)ccc13 [AZD5991] (first compound max 1 µM, 7x7, partner max 1 µM)",0.0617,-0.0502,-0.0112,-0.0119,-0.0229,-0.0614,-0.0587,0.0194,-0.056,-0.0049,0.044,-0.0694,0.565,0.866,–,–
"NC1(C(=O)N[C@@H](CCO)c2ccc(Cl)cc2)CCN(c2ncnc3[nH]ccc23)CC1 [Capivasertib] + CC(=O)c1c(C)c2cnc(Nc3ccc(N4CCNCC4)cn3)nc2n(C2CCCC2)c1=O [Palbociclib] (first compound max 10 µM, 7x7, partner max 10 µM)",-0.0335,0.0033,0.0116,-0.0365,0.0407,-0.0213,-0.0201,0.0106,-0.0242,0.0257,-0.0357,0.0025,0.293,0.463,–,–
"Cc1c2c(nn1C)CSCc1cc(n(C)n1)CSc1cc(c3ccccc3c1)OCCCc1c(C(=O)O)n(C)c3c-2c(Cl)ccc13 [AZD5991] + CN(C)CCCOc1ccc(-c2ccc3ncc4c(c3c2)n(C2CCOCC2)c(=O)n4C)cn1 [AZD0156] (first compound max 1 µM, 7x7, partner max 1 µM)",-0.0262,-0.0705,–,–,-0.0053,-0.0423,-0.0089,–,-0.0227,-0.0112,0.0162,-0.0444,–,–,-0.055,0.84
"CC(=O)c1c(C)c2cnc(Nc3ccc(N4CCNCC4)cn3)nc2n(C2CCCC2)c1=O [Palbociclib] + Cc1c2c(nn1C)CSCc1cc(n(C)n1)CSc1cc(c3ccccc3c1)OCCCc1c(C(=O)O)n(C)c3c-2c(Cl)ccc13 [AZD5991] (first compound max 10 µM, 7x7, partner max 1 µM)",0.0238,-0.0242,-0.0403,-0.0265,-0.0645,-0.0352,-0.033,-0.0238,-0.0869,-0.008,0.0106,-0.0565,0.289,0.313,–,–
"Cn1cnc2c(F)c(Nc3ccc(Br)cc3Cl)c(C(=O)NOCCO)cc21 [Selumetinib] + CC(C)n1c(=O)n(C)c2cnc3cc(F)c(-c4ccc(OCCCN5CCCCC5)nc4)cc3c21 [AZD1390] (first compound max 10 µM, 7x7, partner max 0.3 µM)",-0.0112,-0.006,-0.0327,-0.0529,0.0022,-0.0532,-0.0333,-0.0173,-0.0489,-0.0328,-0.0095,-0.0102,0.0728,0.182,–,–
"Cc1c2c(nn1C)CSCc1cc(n(C)n1)CSc1cc(c3ccccc3c1)OCCCc1c(C(=O)O)n(C)c3c-2c(Cl)ccc13 [AZD5991] + C[C@@H](Nc1cc(F)cc(F)c1)c1cc(C(=O)N(C)C)cc2c(=O)cc(N3CCOCC3)oc12 [AZD8186] (first compound max 1 µM, 7x7, partner max 3 µM)",-0.0249,-0.0611,0.0527,–,-0.006,0.0282,-0.009,–,0.0034,-0.0142,–,0.0005,–,–,0.0078,0.891
"NC1(C(=O)N[C@@H](CCO)c2ccc(Cl)cc2)CCN(c2ncnc3[nH]ccc23)CC1 [Capivasertib] + CC(C)n1c(=O)n(C)c2cnc3cc(F)c(-c4ccc(OCCCN5CCCCC5)nc4)cc3c21 [AZD1390] (first compound max 10 µM, 7x7, partner max 0.3 µM)",0.0233,-0.049,0.0154,-0.0909,-0.0659,0.0109,-0.0538,-0.0379,-0.0886,-0.0515,-0.0731,-0.0474,0.273,0.39,–,–
"Cn1cnc2c(F)c(Nc3ccc(Br)cc3Cl)c(C(=O)NOCCO)cc21 [Selumetinib] + C[C@@H]1COCCN1C2=NC(=NC(=C2)C3(CC3)[S@](=N)(=O)C)C4=C5C=CNC5=NC=C4 [AZD6738] (first compound max 10 µM, 7x7, partner max 10 µM)",-0.0103,-0.0159,-0.0128,-0.0212,-0.0446,-0.071,-0.0527,0.0183,0.0939,-0.046,-0.0353,-0.0591,0.389,0.782,–,–
